A melting point compilation (Tetko et al.; mined from patent text by program, amines drawn as free bases though some values may be those of a salt)

SMILES	melting point [°C]
Cc1c(CCC2CC(O)CC(=O)O2)c2c(c(C)c1OC(=O)c1ccccc1)CC(C)(C)O2 (stereo not drawn)	188 to 190
CN1CCN(c2cccc3c2C[C@H](NC(=O)c2ccc(N4CCNCC4)cc2)CO3)CC1	> 102
O=c1c2ccccc2ccc2cc(Cl)ccc12	160 to 161
O=c1ccn(-c2cc3[nH]c(=O)c(=O)[nH]c3cc2[N+](=O)[O-])cc1Cl	> 300
CC1(Cc2ccc(O)cc2)OCCO1	61 to 64
NS(=O)(=O)c1cc(C(=O)O)cc(NCCCC(=O)O)c1Oc1ccccc1	240 to 241
COc1cc(OC)c2c(=O)[nH]c(-c3cccc(-c4ccc(S(C)=O)s4)c3)nc2c1 (stereo not drawn)	289 to 290
NC(=O)c1ccnc(-c2csc(N=C(N)N)n2)c1	169 to 171
C#CCN1CCC(C(C)(C)C)CC1	48 to 49
O=C(NCCN1CCNCC1)c1cccc(C=CC(=O)N2CCc3c([nH]c4ccccc34)C2c2ccc3c(c2)OCO3)c1 (stereo not drawn)	138 to 140
Cc1cccc(C)c1NC(=O)N=C1CCCN1C	119 to 120
COc1cccc(C2=NN=C(C)Cc3cc(OC)c(OC)cc32)c1	133 to 135
O=C(O)c1cnc2c3ccccc3c(O)cn2c1=O	273 to 276
Cc1cc(SC2=C(O)CC(CCc3ccc(O)cc3)(C3CCCC3)OC2=O)c(C(C)(C)C)cc1CO (stereo not drawn)	199 to 201
O=C(NCC(F)(F)F)NCC(F)(F)F	154 to 155
O=c1cc(-c2ccccc2)oc2cc(OCC3CO3)ccc12 (stereo not drawn)	123 to 130
Cc1c(C)c(C(=O)CCl)c(C)c(C)c1Cl	94 to 96
CN1CC=C(c2c[nH]c3ccc(NS(=O)(=O)N(C)C)cc23)CC1	207 to 208
Fc1cc2cc[nH]c2cc1Cl	105 to 107
CCCCCCCCCCCCCCc1ccc(S(=O)(=O)Nc2nncs2)cc1	116 to 117
CC(C)(C)CC(C)(C)c1cc(N=Nc2cc(C(F)(F)F)ccc2Cl)c(O)c(C(C)(C)c2ccccc2)c1	120 to 127
CCCN1CCN(Cc2nc(-c3ccc4c(c3)Nc3ccccc3S4)cs2)CC1	189 to 190

SMILES	melting point [°C]
O=C(Cl)Cc1ccc(-c2ccc(F)cc2F)c(F)c1	70 to 73
Cc1cc(C)c2c(n1)CCCC2=O	54 to 57
CSc1nnc2ccc3ccccc3n12	115 to 116
CCN1C(=O)C(C(=O)Nc2cccc(C(=O)Nc3ccccc3)c2)c2cc(C(C)=O)ccc21 (stereo not drawn)	173 to 175
N#CC(c1ccccc1)(c1ccccc1)C1CCCN(CCc2ccc(Cl)c(Cl)c2)C1 (stereo not drawn)	139 to 142
O=C1CCC(c2ccccc2)(c2ccccc2)[C@@H]2CN(C(=O)Cc3ccc(Cl)cc3)C[C@H]12 (racemic)	213
COc1cc(N)c(Cl)cc1C(=O)NC1CCN(CC2CCN(C(N)=O)CC2)CC1	222 to 224
CC(C)(C)OC(=O)NC[C@H]1CC[C@H](CO)CC1	88 to 89
Oc1ccc2c(-c3nc4cc(O)ccc4o3)cccc2c1	232 to 234
O=C1C2CC3CCC(C2)N3C1C(c1ccccc1)c1ccccc1 (stereo not drawn)	137 to 138
CCCn1nc2c(N)nc3c(c2c1CCC1CCCCC1)CCCC3	173 to 174
Nc1cc(C(O)=S)cc(Cc2ccccc2)c1Cc1ccccc1	256 to 257
CCOc1cc(NC(C)=O)c([N+](=O)[O-])cc1C(=O)OC	110
CCCCc1oc2ccc(NS(=O)(=O)c3ccc(C)cc3)cc2c1C(=O)c1ccc(OCCCN(CCCC)CCCC)cc1	110
COc1cc([N+](=O)[O-])c2nc(N)ccc2c1	195 to 197
Nc1cc(C[C@H](Nc2nc3ccc(Cl)cc3cc2C(=O)O)C(=O)O)ccc1Oc1nc2ccc(Cl)cc2cc1C(=O)O	> 250
CCCCc1sc(C(N)=O)c2c1-c1nn(C)cc1CC2	227 to 228
CC(COc1ccc(CCO)cc1)NCC(O)c1ccccc1 (stereo not drawn)	93 to 96
CCOC(=O)COc1ccc(C2=NNC(=O)NC2C)cc1 (stereo not drawn)	152 to 153
CC(C)C1(C)Cc2cc(OCC#N)c(Cl)c(Cl)c2C1=O (stereo not drawn)	133
Nc1cc(C=O)nc(CC2CC2)c1F	99 to 100

Further lines, results first:

melting point [°C]	SMILES
167 to 168	O=C(Nc1ccc(C(F)(F)F)cc1)Nc1nc(OCC(F)(F)F)cc(OCC(F)(F)F)n1
106 to 107	CCOC(=O)C(=Cc1cccc([N+](=O)[O-])c1)C(=O)C(Cl)(Cl)Cl
106 to 108	CC(=O)N(O)C(C)c1cn(C)c2ccccc12 (stereo not drawn)
168 to 169	CN(C)C(=O)c1c(-c2ccc3ccccc3c2)ccc2ccccc12
150 to 152	CCOC(=O)c1cc(=O)c2cc(OCC(O)COc3ccc(C#N)cc3)ccc2o1 (stereo not drawn)
178 to 180	COc1c(C=O)ccc2c1oc1ccccc12
137 to 139	Cc1ccc(N2CCN(c3c(C)c(C)c4c(c3C)CC(C)(C)O4)CC2)cc1C
99 to 101	O=C(Nc1ccc(C2CCC(O)C2)cc1)OCc1ccccc1 (stereo not drawn)
125 to 127	CCCCOCCOc1ccc(-c2ccc(N3CCCC(C)C3)c(C=CC(=O)O)c2)cc1 (stereo not drawn)
51	O=C(CBr)CCc1ccc(Cl)cc1
110 to 112	CCOc1cccc(N2CCN(CCCCOc3ccc4c(n3)NC(=O)CC4)CC2)c1Cl
158 to 159	OCC(O)(Cc1ccc(Cl)cc1Cl)c1cccnc1 (stereo not drawn)
126 to 129	Cc1oc(=O)c(Nc2ccccc2F)nc1Cl
174 to 176	O=S(=O)(NCc1ccncc1)c1ccc(I)cc1
91 to 93	CO[C@]1(c2cc(F)cc(OCc3ccc4c(ccc(=O)n4C)c3)c2)CCO[C@@H](C)C1
227 to 229	CCOC(=O)C1(CC(N)=O)C(=O)N2CCOc3cc(Cl)cc1c32 (stereo not drawn)
266 to 268	O=C1Nc2cc(C(F)(F)F)ccc2C1c1cc(Cl)ccc1O (stereo not drawn)
154 to 156	COc1ccc2cc(CNC(=O)c3oc4ccccc4c3C)ccc2c1Br
134 to 136	CNC(=O)C(C)Oc1cc(-c2nn(C)c(C(F)(F)F)c2Cl)c(F)cc1Cl (stereo not drawn)
49	CC(C)(O)[C@H](N)c1ccccc1
143 to 144	Cc1cc2ncnn2nc1OCCC(C)(C)CCS(N)(=O)=O
233 to 235	CCOC(=O)C1=C(O)CCn2c1nc1ccccc12
199 to 200	Cc1noc(NS(=O)(=O)c2ncccc2C(=O)Nc2ccccc2)c1C
87	OC(c1ccccc1)(c1ccccc1)c1ccccc1Cl
107 to 108	CCOC(=O)N(C(=S)NC(C)C)c1c(C(C)C)cc(Oc2ccccc2)cc1C(C)C
114 to 115	CN(C(=O)OC(C)(C)C)c1cc(Oc2ccc(Cc3ccccc3)cc2)ccc1N
100	CCCCSc1ccc(/C=C\C(C)=O)cc1[N+](=O)[O-]
220	CON=CC(C)(C)NC(=O)c1c(I)cccc1C(=O)Nc1ccc(OC(C(F)(F)F)C(F)(F)F)nc1C
> 300	COc1cc2cc3c(=O)c(C#N)c[nH]c3cc2cc1O
293 to 295	CC1CC(=O)NN=C1c1ccc2[nH]c(-c3ccnnc3)cc2c1 (stereo not drawn)
